Calls of active or inactive are those of the source.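 The calls were made as follows: active = EC50 of 10 µM or lower; inactive = EC50 above 10 µM.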
Tested on: DHL10 Bax/Bak-deficient cells, cytotoxicity, MTS absorbance
Test: cytotoxicity in Bax/Bak-deficient DHL10 cells, late-stage follow-up, counter-screen for MCL1-BIM inhibitor project, cell-based, MTS absorbance, EC50 (AID 493058)

| Structure (SMILES) | EC50 |
| --- | --- |
| COc1ccc(Cc2nnc(NC(=O)Cc3csc4ccccc34)s2)cc1OC | > 25 µM (inactive) |
| COc1ccc(Cc2nnc(CC(=O)Nc3cccs3)s2)cc1 | > 25 µM (inactive) |
| O=C(CCn1nnc2ccccc21)Nc1nnc(Cc2ccc(F)cc2)s1 | > 25 µM (inactive) |
| CCOC(=O)c1cc(-c2ccco2)nc2c1c(C)nn2-c1ccccc1 | > 25 µM (inactive) |
| COc1ccc(Cc2nnc(NC(=O)C(=O)c3ccco3)s2)cc1OC | > 25 µM (inactive) |
| COc1ccccc1CC(=O)Nc1nnc(Cc2ccc(OC)c(OC)c2)s1 | > 25 µM (inactive) |
| CCN(CC)CCNC(=O)c1cc(-c2ccco2)nc2ccccc12 | > 25 µM (inactive) |
| COc1ccc(NC(=O)c2cc(-c3ccco3)nc3ccccc23)cc1 | > 25 µM (inactive) |
| Cc1ccc(-c2cc(C(=O)Nc3cccnc3)c3ccccc3n2)o1 | > 25 µM (inactive) |
| O=C(Nc1ccccc1F)c1cc(-c2ccco2)nc2ccccc12 | > 25 µM (inactive) |
| COc1ccc(Cc2nnc(NC(=O)C3(c4ccccc4)CC3)s2)cc1OC | > 25 µM (inactive) |
| O=C(CCn1nnc2ccccc21)Nc1nnc(Cc2ccccc2)s1 | > 25 µM (inactive) |
| CCCCCCNC(=O)c1cc(-c2ccco2)nc2ccccc12 | > 25 µM (inactive) |
| Cc1ccc(-c2cc(C(=O)N3CCN(c4ccc(F)cc4)CC3)c3ccccc3n2)o1 | > 25 µM (inactive) |
| Cc1ccnc(NC(=O)c2cc(-c3ccco3)nc3ccc(Br)cc23)c1 | > 25 µM (inactive) |
| Cc1ccc(-c2cc(C(=O)N3CCN(c4ncccn4)CC3)c3cc(Br)ccc3n2)o1 | > 25 µM (inactive) |
| COc1ccc(Cc2nnc(NC(=O)Cc3cccnc3)s2)cc1OC | > 25 µM (inactive) |
| COc1cccc(NC(=O)CN(C)C(=O)c2cc(-c3ccc(C)o3)nc3ccccc23)c1 | > 25 µM (inactive) |
| Cc1ccc(-c2cc(C(=O)N3CCOCC3)c3ccccc3n2)o1 | > 25 µM (inactive) |
| COc1ccc(Cc2nnc(NC(=O)CCc3cccs3)s2)cc1OC | > 25 µM (inactive) |
| COc1ccc(Cc2nnc(NC(=O)C(F)c3ccccc3)s2)cc1OC (stereo not given) | > 25 µM (inactive) |
| COCCCN(C(=O)c1cc(-c2ccco2)nc2ccccc12)c1c(N)n(Cc2ccccc2)c(=O)[nH]c1=O | > 25 µM (inactive) |
| O=C(c1cc(-c2ccco2)nc2ccccc12)N1CCN(Cc2ccccc2)CC1 | > 25 µM (inactive) |
| Cc1ccc(-c2cc(C(=O)Nc3ccccc3C(N)=O)c3ccccc3n2)o1 | > 25 µM (inactive) |

| Structure (SMILES) | EC50 |
| --- | --- |
| CCCCn1c(N)c(N(CCC(C)C)C(=O)c2cc(-c3ccco3)nc3ccccc23)c(=O)[nH]c1=O | > 25 µM (inactive) |
| O=C(c1cc(-c2ccco2)nc2ccccc12)N1CCCC(C(F)(F)F)C1 (stereo not given) | > 25 µM (inactive) |
| CCOc1cc(N2CCOCC2)c(OCC)cc1NC(=O)c1cc(-c2ccco2)nc2ccccc12 | > 25 µM (inactive) |
| COc1ccc(CCNC(=O)c2cc(-c3ccco3)nc3ccccc23)cc1 | > 25 µM (inactive) |
| O=C(c1cc(-c2ccco2)nc2ccccc12)N1CCN(c2ccc(F)cc2)CC1 | > 25 µM (inactive) |
| COc1ccc(Cc2nnc(NC(=O)Cc3c[nH]c4ccccc34)s2)cc1OC | > 25 µM (inactive) |
| O=C(Nc1ccccn1)c1cc(-c2ccco2)nc2ccc(Br)cc12 | 10 µM |
| COc1ccc(Cc2nnc(NC(=O)Cc3ccccc3C)s2)cc1OC | > 25 µM (inactive) |
| COc1ccc(Cc2nnc(NC(=O)Cc3ccsc3)s2)cc1OC | > 25 µM (inactive) |
| COc1ccc(Cc2nnc(NC(=O)Cc3sc(=S)[nH]c3C)s2)cc1OC | > 25 µM (inactive) |
| CCCCn1c(N)c(N(CCOC)C(=O)c2cc(-c3ccco3)nc3ccccc23)c(=O)[nH]c1=O | > 25 µM (inactive) |
| Cc1ccc(NC(=O)c2cc(-c3ccc(C)o3)nc3ccccc23)nc1 | > 25 µM (inactive) |
| COc1ccc(Cc2nnc(NC(=O)Cc3cccs3)s2)cc1OC | > 25 µM (inactive) |
| CCCN(C(=O)c1cc(-c2ccco2)nc2ccccc12)c1c(N)n(Cc2ccccc2)c(=O)[nH]c1=O | > 25 µM (inactive) |
| COc1ccc(Cc2nnc(NC(=O)Cc3ccncc3)s2)cc1OC | > 25 µM (inactive) |
| COc1ccc(Cc2nnc(NC(=O)Cc3ccc4c(c3)OCO4)s2)cc1OC | > 25 µM (inactive) |
| CC(C)CCNC(=O)c1cc(-c2ccco2)nc2ccccc12 | > 25 µM (inactive) |
| O=C(Nc1nc2ccccc2s1)c1cc(-c2ccco2)nc2ccccc12 | > 25 µM (inactive) |
| Cc1cccc(NC(=O)c2cc(-c3ccc(C)o3)nc3ccccc23)n1 | > 25 µM (inactive) |
| CCOC(=O)c1cc(-c2ccco2)nc2c1c(C)nn2-c1cccc(Cl)c1 | > 25 µM (inactive) |
| CC(=O)c1cccc(NC(=O)c2cc(-c3ccco3)nc3ccccc23)c1 | > 25 µM (inactive) |
| CCN(CC)C(=O)COc1ccc2c(-c3ccc(OC)cc3)cc(=O)oc2c1 | > 25 µM (inactive) |
| CN(CCOc1ccc(Cl)cc1)C(=O)c1cc(-c2ccco2)nc2ccccc12 | > 25 µM (inactive) |
| CN(C)C(CNC(=O)c1cc(-c2ccco2)nc2ccccc12)c1ccccc1 (stereo not given) | > 25 µM (inactive) |

| Structure (SMILES) | EC50 |
| --- | --- |
| Cc1ccc(NC(=O)c2cc(-c3ccc(C)o3)nc3ccccc23)cc1 | > 25 µM (inactive) |
| Cc1nnc(NC(=O)c2cc(-c3ccco3)nc3ccccc23)s1 | > 25 µM (inactive) |
| Cc1ccc(-c2cc(C(=O)Nc3ccccc3C)c3ccccc3n2)o1 | > 25 µM (inactive) |
| CCCCn1c(N)c(N(CC(C)C)C(=O)c2cc(-c3ccco3)nc3ccccc23)c(=O)[nH]c1=O | > 25 µM (inactive) |
| COc1ccc(Cc2nnc(NC(=O)Cc3cccc(Br)c3)s2)cc1OC | > 25 µM (inactive) |
| O=C(Cc1cccs1)Nc1nnc(Cc2ccccc2)s1 | > 25 µM (inactive) |
| COc1ccccc1NC(=O)c1cc(-c2ccc(C)o2)nc2ccccc12 | > 25 µM (inactive) |
| COc1ccc(Cc2nnc(NC(=O)Cc3ccccn3)s2)cc1OC | > 25 µM (inactive) |
| CCOC(=O)C1CCCN(C(=O)c2cc(-c3ccco3)nc3ccccc23)C1 (stereo not given) | > 25 µM (inactive) |
| COc1cccc(NC(=O)c2cc(-c3ccc(C)o3)nc3ccccc23)c1 | > 25 µM (inactive) |
| COc1ccc(Cc2nnc(NC(=O)CCc3ccco3)s2)cc1OC | > 25 µM (inactive) |
| CN(CC(=O)Nc1ccc(F)cc1)C(=O)c1cc(-c2ccco2)nc2ccccc12 | > 25 µM (inactive) |
| COc1ccc(Cc2nnc(NC(=O)c3cc(-c4ccco4)nc4ccc(Br)cc34)s2)cc1OC | 20 µM (inactive) |
| CN(C)C(=O)c1ccc(NC(=O)c2cc(-c3ccco3)nc3ccccc23)cc1 | > 25 µM (inactive) |
| CCc1nnc(NC(=O)c2cc(-c3ccc(C)o3)nc3ccccc23)s1 | > 25 µM (inactive) |
| Cc1ccc(-c2cc(C(=O)N3CC(C)CC(C)C3)c3ccccc3n2)o1 (stereo not given) | > 25 µM (inactive) |
| COc1cccc(NC(=O)CN(C)C(=O)c2cc(-c3ccco3)nc3ccccc23)c1 | > 25 µM (inactive) |
| O=C(NCCCN1CCOCC1)c1cc(-c2ccco2)nc2ccccc12 | > 25 µM (inactive) |
| Cc1ccc(-c2cc(C(=O)N(C)CC(=O)Nc3ccccc3Br)c3ccccc3n2)o1 | > 25 µM (inactive) |
| Cc1ccc(-c2cc(C(=O)N3CCCC(C(F)(F)F)C3)c3ccccc3n2)o1 (stereo not given) | > 25 µM (inactive) |
| Cc1ccc(-c2cc(C(=O)NCC(c3ccccc3)N(C)C)c3ccccc3n2)o1 (stereo not given) | > 25 µM (inactive) |
| COc1ccc(Cc2nnc(NC(=O)c3cc(-c4ccc(C)o4)nc4ccccc34)s2)cc1OC | 25 µM (inactive) |
| Cc1cccc(NC(=O)c2cc(-c3ccco3)nc3ccccc23)n1 | > 25 µM (inactive) |
| CC1CCCN(C(=O)c2cc(-c3ccco3)nc3ccccc23)C1 (stereo not given) | > 25 µM (inactive) |

| Structure (SMILES) | EC50 |
| --- | --- |
| O=C(Nc1ccc(F)cc1F)c1cc(-c2ccco2)nc2ccccc12 | > 25 µM (inactive) |
| Cc1ccc(-c2cc(C(=O)Nc3nccs3)c3ccccc3n2)o1 | > 25 µM (inactive) |
| COc1ccc(CC(=O)Nc2nnc(Cc3ccc(OC)c(OC)c3)s2)cc1 | > 25 µM (inactive) |
| Cc1cccc(NC(=O)c2cc(-c3ccco3)nc3ccc(Br)cc23)n1 | 10 µM |
| Cc1ccc(-c2cc(C(=O)Nc3cccc(S(=O)(=O)N(C)C)c3)c3ccccc3n2)o1 | > 25 µM (inactive) |
| Cc1ccnc(NC(=O)c2cc(-c3ccc(C)o3)nc3ccccc23)c1 | > 25 µM (inactive) |
| COCCN(C(=O)c1cc(-c2ccco2)nc2ccccc12)c1c(N)n(Cc2ccccc2)c(=O)[nH]c1=O | > 25 µM (inactive) |
| O=C(NC1CC1)c1cc(-c2ccco2)nc2ccccc12 | > 25 µM (inactive) |
| CCc1nnc(NC(=O)c2cc(-c3ccco3)nc3ccccc23)s1 | > 25 µM (inactive) |
| CCCn1c(N)c(N(CCOC)C(=O)c2cc(-c3ccco3)nc3ccccc23)c(=O)[nH]c1=O | > 25 µM (inactive) |
| COc1ccc(Cc2nnc(NC(=O)Cc3ccc(Oc4ccccc4)cc3)s2)cc1OC | > 25 µM (inactive) |
| COc1cccc(CC(=O)Nc2nnc(Cc3ccc(OC)c(OC)c3)s2)c1 | > 25 µM (inactive) |
| Cc1ccc(-c2cc(C(=O)NCCCn3ccnc3)c3cc(Br)ccc3n2)o1 | > 25 µM (inactive) |
| O=C(Nc1ccccc1N1CCOCC1)c1cc(-c2ccco2)nc2ccccc12 | > 25 µM (inactive) |
| Cc1ccc(-c2cc(C(=O)Nc3ccccn3)c3ccccc3n2)o1 | > 25 µM (inactive) |
| COc1ccc(Cc2nnc(NC(=O)Cc3ccc(N(C)C)cc3)s2)cc1OC | > 25 µM (inactive) |
| COc1ccc(Cc2nnc(NC(=O)Cc3ccc(C)cc3)s2)cc1OC | > 25 µM (inactive) |
| COc1ccc(Cc2nnc(NC(=O)Cc3ccc4ccccc4c3)s2)cc1OC | > 25 µM (inactive) |
| COc1ccc(Cc2nnc(NC(=O)Cc3cccs3)s2)cc1 | > 25 µM (inactive) |
| O=C(Nc1nncs1)c1cc(-c2ccco2)nc2ccccc12 | > 25 µM (inactive) |
| O=C(NC(=S)Nc1cccc(S(=O)(=O)NC2=NCCC2)c1)c1cc(-c2ccco2)nc2ccccc12 | > 25 µM (inactive) |
| COc1ccc(-c2cc(=O)oc3cc(OCC(=O)N4CC4)ccc23)cc1 | > 25 µM (inactive) |
| CCN1CCN(C(=O)c2cc(-c3ccco3)nc3ccccc23)CC1 | > 25 µM (inactive) |
